These are literature values, as cited in patent US12606918B2, “Production of sanitizing fluid using in situ electrolysis” (APPLIED PHAGE GMBH, priority 2024, dated 2026).

Like-named read-outs stand apart in the source and are kept apart here.

In the case of `[O-][Cl+2]([O-])O` [chlorate], for the setting “as ClO3^−”, the “ADI (allowable daily intake)” value is given as 0.0024 mg/kg BW·day. Moreover, under “as NaClO3”, the “ADI (allowable daily intake)” value was 0.003 mg/kg BW·day and the “Arfd (acute reference dose)” value was 0.003 mg/kg BW·day.
